In patent EP0393512A1, “New 1,3-dioxolane-2-yl derivatives of 2-picolylamine” (J. URIACH & CIA. S.A., priority 1989, dated 1990) one finds IC50 and ED50 data, which are given here for ten compounds.

pIC50: −log10 of the molar value. Like-named read-outs stand apart in the source and are kept apart here.

In assay [1] the test system is platelet aggregation induced by PAF. Put plainly: Inhibition of platelet aggregation induced by PAF (rabbit platelet rich plasma, Born nephelometric technique). Type of assay: cell-based, New Zealand albino rabbits. The conditions noted are these: concentration needed to inhibit platelet aggregation by 50%, PAF (C₁₈) 16 nM final, read-out: IC₅₀. On the procedure:
Inhibition of platelet aggregation induced by PAF.
The blood is obtained by cardiac puncture of male New Zealand albino rabbits (between 2 and 2.5 Kg of weight) and coagulation is prevented by adding 1 part of 3.16% sodium citrate dihydrate in 9 parts of blood. The platelet rich plasma (PRP) is prepared by blood centrifugation at 250xg for 10 min. at 4°C and it is diluted with platelet poor plasma (PPP) by additional centrifugation at 3000xg for 10 min. The amount of platelets is adjusted to […]. The platelet aggregation induced by PAF (C₁₈; prepared in our laboratory) (16 nM, final) is determined by the Born nephelometric technique (J. Physiol., 1962, 162 67) using a aggregometer Chrono-log 500.
The activities of the inhibitors are expressed as IC₅₀, that is to say the concentration of the drug needed to inhibit the platelet aggregation by 50%.

The test system of assay [2] is hypotension induced by PAF. Put plainly: Inhibition of the hypotensive effect induced by PAF in normotense rats. The conditions noted are these: Rattus norvegicus, iv; anesthetized male rats; compound given through the femoral vein 3 min before PAF (0.5 mcg/Kg, i.v.); average arterial pressure; read-out: IC₅₀. In kind it is in vivo, Sprage Dawley rats. How it is done:
Inhibition of the hypotensive effect induced by PAF in normotense rats. Male Sprage Dawley rats, of 180-220 g of weight, anesthetized with sodium pentobarbital (50 mg/Kg, i.p. 1 mL/100 g) have been used. In order to measure the average arterial pressure, a polyethylene catheter is introduced into the carotid artery. The arterial pressure is recorded with the help of a transducer connected with a R611 Beckman polygraph. The tested compounds are administered through the femoral vein 3 min before the injection of PAF (0.5 mcg/Kg, i.v.).

With `CCCCCCCCCCCCCCCCOCC1COC(COC(=O)N(Cc2cccc[n+]2CC)C(C)=O)O1.[I-]` (centres unmarked) [Compound 8, 2-[N-Acetyl-N-[((5-hexadecyloxymethyl-1,3-dioxolane-2-yl)methoxy)carbonyl]aminomethyl]-1-ethylpyridinium iodide], the pIC50 in assay [1] (Oryctolagus cuniculus) is over 7.30. Also, the ED50 in assay [2] is under 0.05 mg/kg.

For the compound `CCCCCCCCCCCCCCCNC(=O)OCC1COC(COC(=O)N(Cc2cccc[n+]2CC)C(C)=O)O1.[I-]` (centres unmarked) [Compound 20, 2-[N-Acetyl-N-[((5-pentadecylcarbamoyloxymethyl-1,3-dioxolane-2-yl)methoxy)carbonyl]aminomethyl]-1-ethylpyridinium iodide], the pIC50 in assay [1] (Oryctolagus cuniculus) was over 7.30. In assay [2], the ED50 worked out at 0.093 mg/kg.

As to `CCCCCCCCCCCCCCCCOCC1COC(COC(=O)N(Cc2cccc[n+]2CC)C(C)=O)O1.[Cl-]` (centres unmarked) [Compound 9, 2-[N-Acetyl-N-[((5-hexadecyloxymethyl-1,3-dioxolane-2-yl)methoxy)carbonyl]aminomethyl]-1-ethylpyridinium chloride], in assay [1], the pIC50 is over 7.30. Moreover, the ED50 in assay [2] is under 0.05 mg/kg.

For the compound `CCCCCCCCCCCCCCCCOCC1COC(COC(=O)N(Cc2cccc[n+]2C)C(C)=O)O1.[I-]` (centres unmarked) [Compound 7, 2-[N-Acetyl-N-[((5-hexadecyloxymethyl-1,3-dioxolane-2-yl)methoxy)carbonyl]aminomethyl]-1-methylpyridinium iodide], the pIC50 in assay [1] (Oryctolagus cuniculus) was 6.00. The ED50 in assay [2] turned out to be 0.32 mg/kg.

Regarding `CCCCCCCCCCCCCCCCOCC1COC(COC(=O)N(Cc2cccc[n+]2CC)C(=O)OCC)O1.[I-]` (centres unmarked) [Compound 11, 2-[N-Ethoxycarbonyl-N-[((5-hexadecyloxymethyl-1,3-dioxolane-2-yl)methoxy)carbonyl]aminomethyl]-1-ethylpyridinium iodide], in assay [1] (Oryctolagus cuniculus), the pIC50 is 6.85. In addition, the ED50 in assay [2] turned out to be 0.095 mg/kg.

In the case of `CCCCCCCCCCCCCCCCOCC1COC(COC(=O)N(Cc2ccccn2)C(C)=O)O1.Cl` (centres unmarked) [Compound 6, 2-[N-Acetyl-N-[((5-hexadecyloxymethyl-1,3-dioxolane-2-yl)methoxy)carbonyl]aminomethyl] pyridine hydrochloride], in assay [1] (Oryctolagus cuniculus), the pIC50 was 5.40. The ED50 in assay [2] was over 5 mg/kg.

Consider `CCCCCCCCCCCCCCCCCCOCC1COC(COC(=O)N(Cc2cccc[n+]2CC)C(C)=O)O1.[I-]` (centres unmarked) [Compound 14, 2-[N-Acetyl-N-[((5-octadecyloxymethyl-1,3-dioxolane-2-yl)methoxy)carbonyl]aminomethyl]-1-ethylpyridinium iodide], for which, in assay [1] (Oryctolagus cuniculus), the pIC50 was 6.96. For the same compound, the ED50 in assay [2] was under 0.05 mg/kg.

As to `CCCCCCCCCCCCCCCCCC1COC(COC(=O)N(Cc2cccc[n+]2CC)C(C)=O)O1.[I-]` (centres unmarked) [Compound 3, 2-[N-Acetyl-N-[((5-heptadecyl-1,3-dioxolan-2-yl)methoxy)carbonyl]aminomethyl]-1-ethylpyridinium iodide], the pIC50 in assay [1] (Oryctolagus cuniculus) is over 7.30. In assay [2], the ED50 came to 0.074 mg/kg.

As to `CCCCCCCCCCCCCCOCC1COC(COC(=O)N(Cc2cccc[n+]2CC)C(C)=O)O1.[I-]` (centres unmarked) [Compound 17, 2-[N-Acetyl-N-[((5-tetradecyloxymethyl-1,3-dioxolane-2-yl)methoxy)carbonyl]aminomethyl]-1-ethylpyridinium iodide], the pIC50 in assay [1] (Oryctolagus cuniculus) is 6.82. Also, the ED50 in assay [2] stood at 0.2 mg/kg.

With `CCCCCCCCCCCCCCCCCNC(=O)OCC1COC(COC(=O)N(Cc2ccccn2)C(C)=O)O1` (centres unmarked) [Compound 22, 2-[N-Acetyl-N-[((5-heptadecylcarbamoyloxymethyl-1,3-dioxolane-2-yl)methoxy)carbonyl]aminomethyl] pyridine], the pIC50 in assay [1] (Oryctolagus cuniculus) was over 7.30. In addition, the ED50 in assay [2] is under 0.05 mg/kg.
